Where two headings read alike, the source gives them in different places.
How the values were obtained:
HIV-1 IIIB isolate = test: HIV-1 p24 antigen capture ELISA, acutely infected 174XCEM cells; format: cell-based; conditions: for anti-HIV-1 activity compared with other betulinol derivatives: 1 μg/ml, p24 OD, FIG. 1
Description: The assay methods described herein are known in the art, and are described in detail, for example, in Crombie et al., J. Exp. Med. 187:25-35 (1998), which is hereby incorporated by reference in its entirety.
Cultures were maintained in culture medium (RPMI-1640+10% fetal bovine serum (“FBS”)) for 4 days, the culture supernatants were then collected, lysed with Triton®-X 100 surfactant, and HIV-1 gag (p24) antigen activity assessed by a standard technique, the Antigen Capture ELISA (enzyme-linked immunosorbent assay) (Roche-NEN).
Data are presented in optical density (“OD”) units, which are linear with ng/ml of p24 Ag from 0.15 to 1.5 OD, and can be converted to pg/ml of HIV-1 antigen using a standard curve.

174XCEM cells = test: Cell viability by trypan blue dye exclusion; conditions: for effect on total cell number or cell viability: trypan blue dye exclusion at four days and seven days
Method: Human T-B hybridoma cell line 174XCEM was exposed to a low multiplicity of infection (“MOI”) (MOI=1.0) of stock HIV-1 IIIB isolate for 2 hours at 37° C., washed ×3 with phosphate buffered saline (“PBS”), then plated at 250,000 cells/well in the presence of various agents, shown in Table 2. Dimethyl sulfoxide (“DMSO”) buffer was used as a “no virus” control. A commercially available synthetic peptide, thrombospondin peptide (“TSP”), known as having HIV-1 inhibitory activity, was used as an “inhibitory activity” control. Two HIV isolates were used, a patient isolate (“child HIV”), and the standard CXCR4 co-receptor utilizing isolate IIIB.
The cell samples were assessed by trypan blue dye exclusion at four days and seven days.

another HIV-1 isolate = test: Effect on 174XCEM cells chronically infected with another HIV-1 isolate; format: cell-based
Method: Agents were also evaluated for an effect on 174XCEM cells chronically infected with another HIV-1 isolate.

[1] = tested on: carcinoma cell line CO-115 of the large intestine; conditions: CO-115 cells; cited from earlier work
[2] = Hashimoto et al. 1997; cited from earlier work
[3] = varying doses up to 2 μg/ml, FIG. 3-5
[4] = 174XCEM cells, HIV-1 IIIB, agents 1 μg/ml, p24 at 4 days, FIG. 2
[5] = chronically infected 174XCEM cells, single dose 1 μg/ml

C=C(C)[C@@H]1CC[C@]2(CO)CC[C@]3(C)[C@H](CC[C@@H]4[C@@]5(C)CC[C@H](OC(C)=O)C(C)(C)[C@@H]5CC[C@]43C)[C@@H]12 [3-acetoxy betulin]
anti-HIV-1 activity compared with other betulinol derivatives (HIV-1 IIIB isolate): superior | effect on total cell number or cell viability (174XCEM cells): no effect

C=C(C)[C@@H]1CC[C@]2(COC(C)=O)CC[C@]3(C)[C@H](CC[C@@H]4[C@@]5(C)CC[C@H](O)C(C)(C)[C@@H]5CC[C@]43C)[C@@H]12 [28-acetoxy betulin]
anti-HIV-1 activity compared with other betulinol derivatives (HIV-1 IIIB isolate): superior | dose-related anti-HIV effect (HIV-1 IIIB isolate; [3]): comparable anti-HIV-1 activity | effect on total cell number or cell viability (174XCEM cells): no effect

C=C(C)[C@@H]1CC[C@]2(COC(C)=O)CC[C@]3(C)[C@H](CC[C@@H]4[C@@]5(C)CC[C@H](OC(C)=O)C(C)(C)[C@@H]5CC[C@]43C)[C@@H]12 [betulin diacetate]
dose-related anti-HIV effect (HIV-1 IIIB isolate): Progressive increases in anti-HIV effect | inhibition (anti-HIV-1 effect) (HIV-1 IIIB isolate): 57% | cell toxicity (174XCEM cells; doses of 0.5, 1.5, and 2 μg/ml): without cell toxicity | inhibition in chronically infected cells (another HIV-1 isolate): 20%

C=C(C)[C@@H]1CC[C@]2(C(=O)O)CC[C@]3(C)[C@H](CC[C@@H]4[C@@]5(C)CC[C@H](O)C(C)(C)[C@@H]5CC[C@]43C)[C@@H]12 [betulinic acid]
LD 50 [1]: 0.375 mg/mL

C=C(C)C1CCC2(CO)CC[C@]3(C)[C@H](CC[C@@H]4[C@@]5(C)CCC(O)C(C)(C)[C@@H]5CC[C@]43C)C12 (stereo partly drawn) [betulinol, lup-20(29)-ene-3β, 28-diol]
inhibition (anti-HIV-1 effect) (HIV-1 IIIB isolate; [4]): no effect | dose-related anti-HIV effect (HIV-1 IIIB isolate; [3]): increasing anti-HIV effect | inhibition in chronically infected cells (another HIV-1 isolate; [5]): minimal effect

C=C(C)C1CCC2(C=O)CC[C@]3(C)[C@H](CC[C@@H]4[C@@]5(C)CCC(=O)C(C)(C)[C@@H]5CC[C@]43C)C12 (stereo partly shown) [betulone aldehyde]
inhibition (anti-HIV-1 effect) (HIV-1 IIIB isolate; [4]): 37% | dose-related anti-HIV effect (HIV-1 IIIB isolate; [3]): Progressive increases in anti-HIV effect | inhibition in chronically infected cells (another HIV-1 isolate; [5]): minimal effect

C=C(C)[C@@H]1CC[C@]2(C(=O)O)CC[C@]3(C)[C@H](CC[C@@H]4[C@@]5(C)CCC(=O)C(C)(C)[C@@H]5CC[C@]43C)[C@@H]12 [betulonic acid]
cytotoxicity, interfering with the proliferation of cells [2]: cytotoxic

betulin dimethyl ether
anti-HIV-1 activity compared with other betulinol derivatives (HIV-1 IIIB isolate): superior | effect on total cell number or cell viability (174XCEM cells): no effect
